Data taken from patent US20130123208A1, “METHOD OF TREATING MULTIPLE SCLEROSIS WITH ADENOSINE RECEPTOR AGONISTS” (THE REGENTS OF THE UNIVERSITY OF COLORADO, a body …, priority 2010, published 2013).
Entries after “also recorded” stand apart in the source; their conditions may differ.

Legend:
[1] = test system: rats with EAE (MOG-induced Experimental Autoimmune Encephalitis); assay: EAE model, motor score after single intrathecal bolus
Protocol: The EAE model described above was used. Motor score was assessed three days before and daily post MOG administration (8.25 ug intradermally). At the onset of motor symptoms (partial tail paralysis, motor score 1) rats were randomly injected with an A2A agonist, CGS21680 (3-[4-[2-[[6-amino-9-[(2R,3R,4S,5S)-5-(ethylcarbamoyl)-3,4-dihydroxy-oxolan-2-yl]purin-2-yl]amino]ethyl]phenyl]propanoic acid) (10 μM) or vehicle.

rats with EAE = assay: EAE model, survival curve (time to motor score 6 or higher); type: in vivo, Male Dark Agouti rats
Excerpt: In a separate group of rats from Example 1, MOG was intradermally administered as described above. […] The time at which motor score reached 6 or higher after the onset of motor symptoms is represented on the survival curve shown in FIG. 2. […] A single intrathecal injection of an A2A agonist, CGS21680, improved survival percentage in rats with EAE.

rat spines (EAE) = assay: FLAIR and T2-weighted MRI on rat spines in EAE; type: in vivo; details: ATL313 treated animals with preserved motor scores
Protocol: ATL313 (4-{3-[6-amino-9-(5-cyclopropylcarbamoyl-3,4-dihydroxy-tetrahydro-furan-2-yl)-9H-purin-2-yl]-prop-2-ynyl}-piperidine-1-carboxylic acid methyl ester) (single bolus 1 μM-not shown and 10 μM) was used in the EAE model as described above (8-9 rats/group). The change in motor symptoms and the survival curve for ATL313 (10 μM) are shown in FIGS. 4A and 4B, respectively. 1 μM ATL313 produced a reduction in motor score lasting approximately 10 days.

neuropathic pain = details: duration of effect ~35 days; cited from earlier work
[2] = test system: cd68 (classically activated macrophage marker); assay: Immunohistochemistry of the dorsal spinal cord, cd68; type: in vivo, rats; details: motor score 6 or higher or 24 days post onset, vs vehicle, P<0.05 (FIG. 3)
[3] = test system: OX-42 (microglial activation marker); assay: Immunohistochemistry of the dorsal spinal cord, OX-42; type: in vivo, rats; details: motor score 6 or higher or 24 days post onset, vs vehicle, P<0.05 (FIG. 3)

COC(=O)N1CCC(CC#Cc2nc(N)c3ncn([C@@H]4O[C@H](C(=O)NC5CC5)C(O)C4O)c3n2)CC1 (stereo in doubt) [ATL313, 4-{3-[6-amino-9-(5-cyclopropylcarbamoyl-3,4-dihydroxy-tetrahydro-furan-2-yl)-9H-purin-2-yl]-prop-2-ynyl}-piperidine-1-carboxylic acid methyl ester]
duration of attenuation of motor effects of EAE, at worst ([1]; 5 ng intrathecal single bolus): ~35 days | progression of motor impairment/dysfunction induced by EAE ([1]; 5 ng intrathecal single bolus at initial onset of motor impairment (FIG. 5A)): good attenuation of progression of motor impairment/dysfunction | number of animals where motor deterioration is arrested with no further progression ([1]; 5 ng intrathecal, first group (FIG. 5B)): 6 | number of rats whose motor symptoms continued on the usual course at around day 35 ([1]; 5 ng intrathecal, second group (FIG. 5C)): 3 | duration of reduction in motor score ([1]; 1 μM single intrathecal bolus): approximately 10 days | duration of arrest of progression of motor score symptoms ([1]; 10 μM single intrathecal injection (FIG. 4A)): > 80 days | duration of suppression of paralysis ([1]; FIG. 6 legend, other sub-group): ~4 week | paralysis ([1]; FIG. 6 legend, surviving ATL313 rats): arrests paralysis in every surviving ATL313 rat | rats still alive (rats with EAE; 10 μM intrathecal, at 70 days, with stabilized motor scores (FIG. 4B)): 6/9 | survival rate (rats with EAE; 10 μM single intrathecal injection, MOG+ATL313 vs MOG+vehicle (FIG. 4B)): increased survival rate | survival (rats with EAE; FIG. 6 legend): markedly enhances survival | MRI abnormalities (hyperintensity) of spine (rat spines (EAE)): only minimal abnormalities | neuropathic pain (neuropathic pain): attenuates neuropathic pain

CCNC(=O)[C@H]1O[C@@H](n2cnc3c(N)nc(NCCc4ccc(CCC(=O)O)cc4)nc32)[C@H](O)[C@@H]1O [CGS21680, 3-[4-[2-[[6-amino-9-[(2R,3R,4S,5S)-5-(ethylcarbamoyl)-3,4-dihydroxy-oxolan-2-yl]purin-2-yl]amino]ethyl]phenyl]propanoic acid, reference compound]
cd68 staining [2]: significant reduction | severity of motor symptoms (motor score) ([1]; 10 μM, single intrathecal injection at onset of motor symptoms, vs vehicle (FIG. 1)): reduced the severity of motor symptoms; also recorded: attenuated motor symptoms | percentage of survival (rats with EAE; 10 μM intrathecal at onset of motor symptoms, day 25, vs vehicle, P<0.05 (FIG. 2)): significant difference in percentage of survival | OX-42 staining [3]: significant reduction
